Source: US8778966B2, “Quinolinone derivatives as PARP and tank inhibitors” (Janssen Pharmaceutica, NV, priority 2007, dated 2014)

Key:
[1] = tested on: PC3 cells; assay: EB1 Comet (microtubule disruption) assay; format: cell-based, human; conditions: 1 hour treatment; for minimal effective concentration: Homo sapiens, PC-3, 1 h, read-out: EB1 pLAC (converted)
Method: The Eb1 Comet assay relies on the detection of the Eb1 protein at the plus end of polymerizing microtubules (Mimori-Kiyosue, 2000) using indirect immunofluorescence. Disruption of microtubule dynamics through de-polymerization or stabilization results in a de-localization of Eb1 from the growing microtubule ends and this is visualized by the disappearance of Eb1 containing cytoplasmic foci.
Briefly, human prostate cancer PC3 cells obtained from the American Type Culture Collection were grown in 96-well plates (Greiner, cat. no. 655090) in HAM's F12 medium as recommended by the provider (ATCC). The cells were treated for 1 hour at 37° C. with compounds dissolved in DMSO (0.6% final DMSO concentration). The culture medium was then removed by aspiration and the cells were fixed by adding cold methanol (−20 C). After a 15 min. incubation at −20 C, the cells were washed twice with DPBS (Gibco) containing 0.5% Triton X-100. Mouse Eb1 antibody (BD Transduction Laboratories, cat. no. 610534) was added to the cells (1/250 dilution in DPBS containing 1% BSA) and incubated overnight at room temperature. The antibody was subsequently removed and the cells washed twice with DPBS, 0.5% Triton X-100. Secondary goat anti-mouse antibody conjugated to Alexa 488 fluorescent dye (Molecular Probes) was added at a 1/500 dilution in DPBS, 1% BSA and incubated for 1 hour at 37 C. The cells were washed twice with DPBS, 0.5% Triton X-100 and then DPBS containing 0.5% Triton X-100 and 1/5000 Hoechst 33342 (Molecular Probes) was added. Microscopy based Eb1 foci visualization was carried out using an IN Cell Analyser 1000 (Amersham Biosciences) using a 20× objective. Compound dependent microtubule disruption was visually determined by the disappearance in Eb1 foci. The lowest active concentration (LAC) was determined as the concentration where Eb1 foci were absent in at least 50% of the treated cells.

[2] = target: T1, Human PARP-1 enzyme (Homo sapiens, UniProt P09874); assay: In vitro Scintillation Proximity Assay (SPA) for PARP-1 inhibitory activity; format: biochemical; conditions: for IC50: read-out: in vitro SPA assay PARP-1 pIC50 (converted)
T1 construct: purchased Trevigen
T1 sequence (P09874 whole entry): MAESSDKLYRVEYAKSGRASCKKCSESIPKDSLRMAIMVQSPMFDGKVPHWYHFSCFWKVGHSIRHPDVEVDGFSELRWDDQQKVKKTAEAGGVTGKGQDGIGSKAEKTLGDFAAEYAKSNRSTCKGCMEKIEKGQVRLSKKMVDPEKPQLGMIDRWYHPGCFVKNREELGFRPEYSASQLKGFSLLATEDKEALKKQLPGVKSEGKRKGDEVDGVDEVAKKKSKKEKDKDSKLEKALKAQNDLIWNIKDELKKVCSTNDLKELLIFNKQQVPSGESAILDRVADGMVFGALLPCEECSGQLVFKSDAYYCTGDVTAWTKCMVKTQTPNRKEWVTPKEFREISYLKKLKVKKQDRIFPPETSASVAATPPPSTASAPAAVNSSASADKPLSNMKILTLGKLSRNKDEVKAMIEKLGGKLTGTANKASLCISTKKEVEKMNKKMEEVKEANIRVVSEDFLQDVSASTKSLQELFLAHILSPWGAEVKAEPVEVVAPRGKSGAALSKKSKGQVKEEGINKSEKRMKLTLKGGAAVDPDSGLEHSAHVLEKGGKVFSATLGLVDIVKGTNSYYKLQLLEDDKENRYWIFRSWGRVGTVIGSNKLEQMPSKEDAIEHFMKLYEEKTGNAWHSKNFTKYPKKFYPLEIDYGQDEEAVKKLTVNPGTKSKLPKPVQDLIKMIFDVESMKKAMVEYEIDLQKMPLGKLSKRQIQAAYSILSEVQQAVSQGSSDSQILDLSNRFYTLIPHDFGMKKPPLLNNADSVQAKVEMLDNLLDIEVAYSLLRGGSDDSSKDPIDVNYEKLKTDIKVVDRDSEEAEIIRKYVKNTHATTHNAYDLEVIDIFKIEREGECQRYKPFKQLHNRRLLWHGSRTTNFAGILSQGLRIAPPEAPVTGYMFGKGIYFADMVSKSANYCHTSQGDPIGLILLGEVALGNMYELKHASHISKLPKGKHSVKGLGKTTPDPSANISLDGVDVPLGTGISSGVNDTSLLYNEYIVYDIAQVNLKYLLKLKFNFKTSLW
Method in brief: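 SPA assay: nicked-DNA-activated PARP-1 (0.1–0.2 μg/ml) ADP-ribosylates biotinylated histones (2 μg/ml) using [3H]-NAD+, 20 min at RT in Tris pH 8/DTT/MgCl2, stopped with 2 mM NAD+. Blank-subtracted cpm expressed as % control; IC50 by linear interpolation, reported as pIC50 (10−5 to 3×10−9 M tested).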

Structure (SMILES)	minimal effective concentration [1] [µM]	IC50 [2] [nM]	in vitro SPA assay PARP-1 pIC50 [2]	EB1 pLAC [1]
CCc1cc2ccc(C(C)(C#N)Cc3cccc(C)c3F)cc2[nH]c1=O (centres unmarked) [Compound 132]	0.316	1260	–	–
CCc1cc2ccc(C(C)(C#N)Cc3cccc(F)c3F)cc2[nH]c1=O (centres unmarked) [Compound 120]	0.316	631	–	–
CCc1cc2ccc(C(C)(C#N)CCOc3ccc(F)cc3)cc2[nH]c1=O (centres unmarked) [Compound 144]	0.316	251	–	–
CCc1cc2ccc(C(C)(C#N)Cc3c(F)c(F)c(F)c(F)c3F)cc2[nH]c1=O (centres unmarked) [Compound 116]	0.316	1000	–	–
CCc1cc2ccc(C(C)(C#N)Cc3cccc(C(=O)OC)c3)cc2[nH]c1=O (centres unmarked) [Compound 12]	0.0316	501	–	–
C#Cc1cccc(CC(C)(C#N)c2ccc3cc(CC)c(=O)[nH]c3c2)c1 (racemic) [Compound 168]	0.1	631	–	–
CCc1cc2ccc(C(C)(C#N)CC3COc4ccccc4O3)cc2[nH]c1=O (single isomer, unassigned) [Compound 48]	1	–	6.4	–
CCc1cc2ccc(C(C)(C#N)Cc3cccc(OC)c3)cc2[nH]c1=O (centres unmarked) [Compound 113]	> 10	251	–	–
CCc1cc2ccc(C(C)(C#N)Cc3cc(F)cc(Cl)c3)cc2[nH]c1=O (centres unmarked) [Compound 126]	0.316	794	–	–
CCc1cc2ccc(C(C)(C#N)CCOc3ccc(OC)cc3)cc2[nH]c1=O (centres unmarked) [Compound 147]	1	158	–	–
CCc1cc2ccc(C(C)(C#N)Cc3c(F)cccc3F)cc2[nH]c1=O (centres unmarked) [Compound 138]	1	1260	–	–
CCc1cc2ccc(C(C)(C#N)Cc3c(Cl)cccc3Cl)cc2[nH]c1=O (centres unmarked) [Compound 135]	1	1000	–	–
CCc1cc2ccc(C(C)(C#N)Cc3cccc(Cl)c3)cc2[nH]c1=O (centres unmarked) [Compound 140]	0.1	631	–	–
CCc1cc2ccc(C(C)(C#N)Cc3cc(F)cc(C(F)(F)F)c3)cc2[nH]c1=O (centres unmarked) [Compound 127]	1	1000	–	–
CCc1cc2ccc(C(C)(C#N)Cc3cccc(F)c3)cc2[nH]c1=O (centres unmarked) [Compound 112]	1	200	–	–
CCc1cc2ccc(C(C)(C#N)Cc3ccccc3F)cc2[nH]c1=O (centres unmarked) [Compound 106]	0.316	398	–	–
CCc1cc2ccc(C(C)(C#N)Cc3cccc(OC(F)(F)F)c3)cc2[nH]c1=O (centres unmarked) [Compound 110]	0.1	794	–	–
CCc1cc2ccc(C(C)(C#N)Cc3ccccc3Br)cc2[nH]c1=O (centres unmarked) [Compound 104]	0.316	631	–	–
CCc1cc2ccc(C(C)(C#N)Cc3cc(Cl)cc(Cl)c3)cc2[nH]c1=O (centres unmarked) [Compound 141]	0.1	1000	–	–
CCc1cc2ccc(C(C)(C#N)Cc3ccc(F)cc3Br)cc2[nH]c1=O (centres unmarked) [Compound 139]	0.316	1260	–	–
CCc1cc2ccc(C(C)(C#N)CCOc3cccc4ccccc34)cc2[nH]c1=O (centres unmarked) [Compound 158]	0.316	1580	–	–
CCc1cc2ccc(C(C)(C#N)Cc3cccc(C(F)(F)F)c3)cc2[nH]c1=O (centres unmarked) [Compound 109]	3.16	794	–	–
CCc1cc2ccc(C(C)(C#N)CC3CN(C)c4ccccc4O3)cc2[nH]c1=O (centres unmarked) [Compound 156]	1	316	–	–
CCc1cc2ccc(C(C)(C#N)Cc3cccc(N)c3)cc2[nH]c1=O (centres unmarked) [Compound 15]	3.16	316	–	–
CCc1cc2ccc(C(C)(C#N)Cc3ccc4ccccc4c3)cc2[nH]c1=O (centres unmarked) [Compound 122]	1	1260	–	–
CCc1cc2ccc(C(C)(C#N)Cc3ccccc3C)cc2[nH]c1=O (centres unmarked) [Compound 105]	0.316	794	–	–

Structure (SMILES)	minimal effective concentration [1] [µM]	IC50 [2] [nM]	in vitro SPA assay PARP-1 pIC50 [2]	EB1 pLAC [1]
CCc1cc2ccc(C(C)(C#N)Cc3cccc(C)c3)cc2[nH]c1=O (centres unmarked) [Compound 107]	1	251	–	–
CCc1cc2ccc(C(C)(C#N)Cc3cccc(S(C)(=O)=O)c3)cc2[nH]c1=O (centres unmarked) [Compound 129]	1	631	–	–
CCc1cc2ccc(C(C)(C#N)Cc3ccc(Br)cc3)cc2[nH]c1=O (centres unmarked) [Compound 118]	3.16	398	–	–
CCc1cc2ccc(C(C)(C#N)CCOc3ccc(Br)cc3)cc2[nH]c1=O (centres unmarked) [Compound 160]	0.316	794	–	–
CCc1cc2ccc(C(C)(C#N)CCOc3cccc(Cl)c3)cc2[nH]c1=O (centres unmarked) [Compound 151]	1	501	–	–
CCc1cc2ccc(C(C)(C#N)Cc3cc(F)cc(F)c3)cc2[nH]c1=O (centres unmarked) [Compound 128]	–	501	–	7.5
CCc1cc2ccc(C(C)(C#N)Cc3cc(C)cc(C)c3)cc2[nH]c1=O (centres unmarked) [Compound 125]	0.1	1000	–	–
CCc1cc2ccc(C(C)(C#N)CCOc3ccc4ccccc4c3)cc2[nH]c1=O (centres unmarked) [Compound 157]	0.1	1580	–	–
CCc1cc2ccc(C(C)(C#N)Cc3cccc(C(F)(F)F)c3F)cc2[nH]c1=O (centres unmarked) [Compound 134]	1	1260	–	–
Cc1cc2ccc([C@@](C)(C#N)CCOc3ccccc3)cc2[nH]c1=O (single isomer, unassigned) [Compound 164]	0.316	1580	–	–
CCc1cc2ccc(C(C)(C#N)Cc3ccc(OC)cc3)cc2[nH]c1=O (centres unmarked) [Compound 119]	3.16	316	–	–
CCc1cc2ccc(C(C)(C#N)CCOc3ccc(C#N)cc3)cc2[nH]c1=O (centres unmarked) [Compound 161]	0.316	251	–	–
CCc1cc2ccc(C(C)(C#N)Cc3cccc(-c4nc(C)no4)c3)cc2[nH]c1=O (centres unmarked) [Compound 11]	1	631	–	–
CCc1cc2ccc(C(C)(C#N)Cc3ccc4c(c3)nnn4C)cc2[nH]c1=O (centres unmarked) [Compound 123]	3.16	158	–	–
CCc1cc2ccc(C(C)(C#N)Cc3c(Cl)cccc3Br)cc2[nH]c1=O (centres unmarked) [Compound 136]	1	1580	–	–
CCc1cc2ccc(C(C)(C#N)Cc3cccc(CCC#N)c3)cc2[nH]c1=O (centres unmarked) [Compound 165]	1	251	–	–
CCOc1ccccc1OCCC(C)(C#N)c1ccc2cc(CC)c(=O)[nH]c2c1 (centres unmarked) [Compound 142]	1	631	–	–
CCc1cc2ccc(C(C)(C#N)Cc3ccc(OC(F)(F)F)cc3)cc2[nH]c1=O (centres unmarked) [Compound 114]	1	1000	–	–
CCc1cc2ccc(C(C)(C#N)CCOc3cccc(C)c3)cc2[nH]c1=O (centres unmarked) [Compound 143]	1	794	–	–
CCc1cc2ccc(C(C)(C#N)Cc3ccc4c(c3)OCCO4)cc2[nH]c1=O (centres unmarked) [Compound 124]	1	501	–	–
CCc1cc2ccc(C(C)(C#N)CCOc3ccc(Cl)cc3Cl)cc2[nH]c1=O (centres unmarked) [Compound 154]	0.1	1260	–	–
CCc1cc2ccc(C(C)(C#N)Cc3cccc(Cl)c3Cl)cc2[nH]c1=O (centres unmarked) [Compound 121]	0.316	1580	–	–
CCc1cc2ccc(C(C)(C#N)Cc3ccc(F)cc3F)cc2[nH]c1=O (centres unmarked) [Compound 137]	1	1260	–	–
CCc1cc2ccc(C(C)(C#N)CCOc3ccccc3C)cc2[nH]c1=O (centres unmarked) [Compound 148]	0.316	316	–	–
CCc1cc2ccc(C(C)(C#N)CCOc3ccccc3)cc2[nH]c1=O (centres unmarked) [Compound 145]	1	200	–	–
CCc1cc2ccc(C(C)(C#N)Cc3cccc(Cl)c3F)cc2[nH]c1=O (centres unmarked) [Compound 130]	0.1	631	–	–
